From publication PMC11816618, “Pharmacokinetic profile and in vivo anticancer efficacy of anagrelide administered subcutaneously in rodents” (Drug Delivery, 2025)
Blank lines part the entries; values can stand above or below the compound they belong to.

Assays:
[1] = Long-term plasma exposure after a single SC ANA dose (56-day follow-up), plasma LC-MS/MS; assay type: in vivo, Sprague-Dawley rats; conditions: male SD rats, n = 5, 56-day follow-up
Protocol: To monitor the sustained release of SC ANA in the long term, 10 male SD rats were treated with a single dose of either 7.0 mg/kg (n = 5) or 35.0 mg/kg (n = 5). The rats were purchased from SPF Biotechnology Co. Ltd. (Beijing, China). Animals were acclimated to the test facility for at least three days, during which their general health was checked by veterinary staff or other authorized personnel. Animals were kept in polycarbonate cages containing absorbent corncob bedding, with a maintained temperature range of +20-25 °C and a 12-h light/dark cycle. Animals had access to food and drinking water ad libitum during acclimation and the experiment. At the end of the study, the rats were euthanized by exposure to an increasing concentration of CO2. […] The SC formulation was prepared by dissolving micronized ANA (5 μm particle size) in an oily triglyceride ester of saturated caprylic and capric fatty acids and glycerol (Miglyol® 810 N, IOI Oleo GmbH, Hamburg, Germany). […] To evaluate plasma concentration-time profiles, blood samples were collected from the jugular vein in EDTA tubes and stored at -70 °C until further analysis. […] In the second PK analysis in rats with a longer follow-up time, blood samples were collected at 0, 30 min, 1 […], and 56 d after dosage. SD rat plasma was analyzed for ANA, 3-OH-ANA, and RL603 concentrations by Pharmaron (Beijing, China). ANA, 3-hydroxy-anagrelide (CAS No. 733043-41-9, Cat. No. sc-206647, Santa Cruz Biotechnology, Inc., Dallas, TX), and RL603 (CAS No. 327602-34-6, Cat. No. sc-391661, Santa Cruz Biotechnology, Inc., Dallas, TX) were used as reference items in calibration standards and quality control (QC) samples. The HPLC and the MS/MS (LCMS-8060) instruments were both from SHIMADZU (Kyoto, Japan), and the column used was a Raptor Biphenyl column (2.7 μm, 50 × 2.1 mm, Restek, Bellefonte, PA). The desired serial concentrations of working solutions were achieved by diluting analyte stock solution with 50% acetonitrile in water. […] QC samples at 0.5, 1, 2, 50, and 800 ng/mL were prepared independently of those used for the calibration curves. These QC samples were prepared on the day of analysis in the same way as calibration standards. Carbamazepine (CAS No. 298-46-4, Sigma-Aldrich, St. Louis, MO) was used as an internal standard for all analytes. Altogether, 55 μL of standards, 55 μL of QC samples, and 55 μL of test samples (comprising 50 μL of plasma and 5 μL of blank solution) were added to 200 μL of acetonitrile containing an internal standard mixture to precipitate protein. The samples were then vortexed for 30 seconds. After centrifugation at 4000 × g (+4 °C) for 5 min, the supernatant was diluted threefold with water, and 2 μL of the diluted supernatant was injected into the LC/MS/MS system for quantitative analysis. The transitions were 256.00-198.90 m/z for anagrelide hydrochloride, 272.00-198.95 m/z for 3-hydroxy anagrelide, 216.00-198.95 m/z for RL603, and 237.20-194.10 m/z for carbamazepine. […] Plasma drug concentration-time profiles were drawn by the average plasma concentrations at specific time points using Microsoft Excel (Redmond, WA). […] Certara, Princeton, NJ) software. Averages of each variable were used when PK values were compared.

[2] = PK comparison between three administration routes (IV, PO, SC), plasma LC-MS/MS; assay type: in vivo, Sprague-Dawley rats; conditions: for Tmax: male, plasma, read-out: Tmax
Protocol: The rats were purchased from SPF Biotechnology Co. Ltd. (Beijing, China). Animals were acclimated to the test facility for at least three days, during which their general health was checked by veterinary staff or other authorized personnel. Animals were kept in polycarbonate cages containing absorbent corncob bedding, with a maintained temperature range of +20-25 °C and a 12-h light/dark cycle. Animals had access to food and drinking water ad libitum during acclimation and the experiment. At the end of the study, the rats were euthanized by exposure to an increasing concentration of CO2. […] The SC formulation was prepared by dissolving micronized ANA (5 μm particle size) in an oily triglyceride ester of saturated caprylic and capric fatty acids and glycerol (Miglyol® 810 N, IOI Oleo GmbH, Hamburg, Germany). […] To evaluate plasma concentration-time profiles, blood samples were collected from the jugular vein in EDTA tubes and stored at -70 °C until further analysis. […] In the second PK analysis in rats with a longer follow-up time, blood samples were collected at 0, 30 min, 1 […], and 56 d after dosage. SD rat plasma was analyzed for ANA, 3-OH-ANA, and RL603 concentrations by Pharmaron (Beijing, China). ANA, 3-hydroxy-anagrelide (CAS No. 733043-41-9, Cat. No. sc-206647, Santa Cruz Biotechnology, Inc., Dallas, TX), and RL603 (CAS No. 327602-34-6, Cat. No. sc-391661, Santa Cruz Biotechnology, Inc., Dallas, TX) were used as reference items in calibration standards and quality control (QC) samples. The HPLC and the MS/MS (LCMS-8060) instruments were both from SHIMADZU (Kyoto, Japan), and the column used was a Raptor Biphenyl column (2.7 μm, 50 × 2.1 mm, Restek, Bellefonte, PA). The desired serial concentrations of working solutions were achieved by diluting analyte stock solution with 50% acetonitrile in water. […] These QC samples were prepared on the day of analysis in the same way as calibration standards. Carbamazepine (CAS No. 298-46-4, Sigma-Aldrich, St. Louis, MO) was used as an internal standard for all analytes. Altogether, 55 μL of standards, 55 μL of QC samples, and 55 μL of test samples (comprising 50 μL of plasma and 5 μL of blank solution) were added to 200 μL of acetonitrile containing an internal standard mixture to precipitate protein. The samples were then vortexed for 30 seconds. After centrifugation at 4000 × g (+4 °C) for 5 min, the supernatant was diluted threefold with water, and 2 μL of the diluted supernatant was injected into the LC/MS/MS system for quantitative analysis. The transitions were 256.00-198.90 m/z for anagrelide hydrochloride, 272.00-198.95 m/z for 3-hydroxy anagrelide, 216.00-198.95 m/z for RL603, and 237.20-194.10 m/z for carbamazepine. […] Plasma drug concentration-time profiles were drawn by the average plasma concentrations at specific time points using Microsoft Excel (Redmond, WA). […] Certara, Princeton, NJ) software. Averages of each variable were used when PK values were compared.

[3] = analyte in plasma after single SC ANA dose 7 mg/kg
[4] = analyte in plasma after single SC ANA dose 35 mg/kg
[5] = Sprague-Dawley, rat, analyte in plasma after single SC ANA dose 7 mg/kg
[6] = Sprague-Dawley, rat, analyte in plasma after single SC ANA dose 35 mg/kg
[7] = Sprague-Dawley, rat, analyte in plasma after single ANA dose 0.5 mg/kg IV, male SD rats, n = 3, mean ± SD
[8] = Sprague-Dawley, rat, analyte in plasma after single ANA dose 2.5 mg/kg PO, male SD rats, n = 3, mean ± SD

- AUCinf [1, 3]: 699.77 ± 705.45 ng·h/mL
- AUClast [1, 3]: 86.57 ± 60.96 ng·h/mL
- Cmax [1, 3]: 0.46 ± 0.09 ng/mL
- T1/2 [1, 3]: 45.78 ± 39.41 days
- Tmax [1, 3]: 19.00 ± 35.34 h
- AUCinf [1, 4]: 2492.52 ± 2459.44 ng·h/mL
- AUClast [1, 4]: 563.51 ± 106.90 ng·h/mL
- Cmax [1, 4]: 1.75 ± 0.61 ng/mL
- T1/2 [1, 4]: 15.74 ± 8.33 days
- Tmax [1, 4]: 46.00 ± 95.07 h
SMILES: O=C1NC2=Nc3ccc(Cl)c(Cl)c3CN2C1O (centres unmarked) [3-Hydroxy-anagrelide, 3′-hydroxy-anagrelide]

- AUC(0-inf) [1, 5]: 1530 ± 1540 ng·h/mL
- AUC(0-t) [1, 5]: 351 ± 85.7 ng·h/mL
- half-life [1, 5]: 37.3 days
- Cmax ([1]; Sprague-Dawley, rat, analyte in plasma after single SC ANA dose 7 mg/kg, read-out: Cmax): 1.08 ± 0.26 ng/mL
- Tmax ([1]; Sprague-Dawley, rat, analyte in plasma after single SC ANA dose 7 mg/kg, read-out: Tmax): 19.6 ± 9.84 h
- AUC(0-inf) [1, 6]: 2280 ± 1210 ng·h/mL
- AUC(0-t) [1, 6]: 925 ± 141 ng·h/mL
- half-life [1, 6]: 11.9 days
- Cmax ([1]; Sprague-Dawley, rat, analyte in plasma after single SC ANA dose 35 mg/kg, read-out: Cmax): 2.4 ± 1.28 ng/mL
- Tmax ([1]; Sprague-Dawley, rat, analyte in plasma after single SC ANA dose 35 mg/kg, read-out: Tmax): 92.8 ± 113 h
- Cmax [2, 7]: 12.3 ± 2.85 ng/mL
- half-life [2, 7]: 58.8 ± 14.4 min
- AUC(0-inf) [2, 8]: 34.8 ± 9.94 ng·h/mL
- AUC(0-t) [2, 8]: 24.9 ± 4.29 ng·h/mL
- Cmax [2, 8]: 3.48 ± 1.01 ng/mL
- half-life [2, 8]: 786 ± 317 min
- plasma concentration (not detected above the quantifiable limit) ([2]; after SC ANA 1.0 mg/kg, SD rats): < 0.2 ng/mL
- Tmax ([2]; Sprague-Dawley, rat, iv, 0.5 mg/kg, analyte in plasma after single ANA dose 0.5 mg/kg IV, male SD rats, n = 3, mean ± SD): 1 ± 0.87 h
- Tmax ([2]; Sprague-Dawley, rat, po, 2.5 mg/kg, analyte in plasma after single ANA dose 2.5 mg/kg PO, male SD rats, n = 3, mean ± SD): 1.67 ± 0.58 h
SMILES: NC1=Nc2ccc(Cl)c(Cl)c2CN1 [RL603, 2‐amino‐5,6‐dichloro‐3,4‐dihydroquinazolin]
